The text below walks through data of patent publication US11266715B2, “C3A receptor agonists for use against ischemic brain injury, stroke, traumatic brain injury, spinal cord injury and neurodegenerative disorders” (priority 2016, dated 2022).

The subject of experiment [1] is WT mice subjected to photothrombotic stroke in the motor cortex. The experiment is described as follows: Cylinder test (spontaneous forelimb asymmetry) after photothrombotic stroke. It is filed as in vivo, mouse. Here is the method: Cortical photothrombosis was induced using the Rose Bengal method (Lee et al., 2007; Watson et al., 1985) with some modifications. Anesthesia was induced with isoflurane (Forene®, Abbott) in air and oxygen (1:1) initially at 5% and reduced to 2.5% during the surgical procedure. Body temperature was monitored by a rectal probe and maintained at 37° C. using a homeothermic control unit (Harvard Apparatus). Anesthetized mice were placed in a stereotaxic frame, the skull was exposed through a midline scalp incision and Rose Bengal (200 μl, 10 mg/ml solution in sterile saline, Sigma) was injected intraperitoneally. After 5 min, the skull and underlying brain tissue were illuminated for 12 min by a 2 mm diameter cold laser beam (50 mW, 561 nm; Cobolt AB) positioned at AP +0.5 mm and ML −2.7 mm relative to Bregma, targeting the border between left primary somatosensory and motor cortex (Porritt et al., 2012). For intervention experiments targeting motor cortex, stroke was induced as above with the following modifications: Transcranial illumination lasting 15 min was delivered using cold light source (LQ1600, Fiberoptic-Heim AG) equipped with 2 mm wide fiber optic probe and directed to AP +0 and ML −1.5 relative to Bregma. After illumination, the scalp was sutured and mice were placed in a warm cage for 45 min to recover from anesthesia prior to being returned to the home cage. Mice were provided with moist mashed food placed on the floor of the home cage and their weight was monitored daily for 7 days after surgery. There were no significant differences in body weight, body temperature (36.5±0.5° C.), duration of surgery, or post-stroke mortality between cohorts. Each cohort contained an even distribution of mice from the matched strains or treatment groups.
Purified human C3a peptide (Complement Technologies) was diluted in sterile phosphate buffered saline (PBS) to a concentration of 200 nM and a total of 20 μl (10 μl/nostril; corresponding to approximately 1.13 μg/kg body weight) of peptide solution or PBS was given intranasally to awake, hand-restrained mice held in a supine position. Solutions were administered through a pipette tip, drop-wise in 5 μl portions divided by 1 min intervals to allow for absorption. C3a or PBS was given every 24 hours on days 7 to 21 post-stroke for the short-term study or on days 7 to 28 post-stroke for the long-term study. Mice were assigned to C3a or PBS treatment using randomization stratified by body weight to avoid potential confounding effects of body weight on behavioural performance. The investigators carrying out behavioural studies and analysing data were blinded to treatment group. For the assessment of potential systemic anaphylactic response due to intranasal C3a inoculation, body temperature was monitored using a rectal temperature probe (Harvard Apparatus) inserted approximately 4 mm into the rectum of awake mice restrained by the scruff. Baseline temperature was taken before intranasal administration and 5, 15, 30, 45 and 75 min after C3a or PBS administration.
Functional impairment of mice treated intranasally with C3a or vehicle was assessed using a modified cylinder test and a grid walking task to closely evaluate forepaw function. Mice were tested once on each task one week before stroke induction to establish baseline performance. Next, they were tested on days 7, 14 and 21 (short-term study) or days 7, 14, 28, 42 and 56 (long-term study) post-stroke. […]

For experiment [2], the system named is mice subjected to neonatal hypoxia-ischemia. The settings on record: single i.c.v. injection 1 h after HI, wild-type mice tested as adults (42 days later); not in C3aR−/− mice; cited from earlier work.

Entries after “also recorded” stand apart in the source; their conditions may differ.

Take “C3a: Purified human C3a peptide (Complement Technologies), C3a receptor agonist, amino acid sequence SEQ ID NO: 1”: the “cylinder task average scores on last day of testing, C3a vs PBS” value in experiment [1] (long-term study, day 56, Sidak's test P=0.0687) is recorded as “only a trend toward a difference between groups”. The “cylinder task performance at days 28 and 56 vs day 7” value in experiment [1] (long-term study, Dunnett's test P=0.032 and P=0.0019) is on record as “sustained functional improvement”. The “mice that improved affected paw usage between day 7 and day 56” value in experiment [1] (long-term study, paired t-test P=0.009) is 8/10. For the same substance, the “right paw use for body support, course between days 7 and 21” value in experiment [1] (short-term study, C3a days 7-21, n=10 mice/group) is “continuous improvement”. Besides, in experiment [1] (short-term study, P=0.062), the “frequency of right paw use on day 21 vs baseline” value was “did not differ from baseline performance”. Moreover, in experiment [2], the “HI-induced cognitive/memory impairment after single intraventricular C3a” value was “prevented HI-induced cognitive impairment; also recorded: ameliorated memory impairment”.
